Measurements taken from the supplement of paper PMC10307832.

Assays:
Experiment in all cases: relative viability (nuclei count vs DMSO), 5 days (fraction); higher = more cells survive
Doxorubicin + OSI-027 = compound: COc1cccc2c1C(=O)c1c(O)c3c(c(O)c1C2=O)C[C@@](O)(C(=O)CO)C[C@@H]3O[C@H]1C[C@H](N)[C@H](O)[C@H](C)O1 [Doxorubicin] + COc1cccc2cc(-c3nc([C@H]4CC[C@H](C(=O)O)CC4)n4ncnc(N)c34)[nH]c12 [OSI-027] (partner 0.5 µM)
Outline: (§1)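 Lung cancer cell lines in 1536-well plates were dosed by pin tool the day after seeding, either with one drug alone or with a fixed anchor-drug dose plus five library-drug doses (not always all listed) in √10 steps. After 5 days, cells were fixed and their nuclei stained in one step (final 0.05% Triton X-100, 1% formaldehyde, 1 ug/ml Hoechst), then counted on 4× images. Relative viability is the nuclei count in treated wells divided by that in vehicle wells. Values are medians of duplicate plates.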

BAY61-3606 + Lapatinib = compound: COC1=C(C=C(C=C1)C2=CC3=NC=CN3C(=N2)NC4=C(C=CC=N4)C(=O)N)OC [BAY61-3606] + CS(=O)(=O)CCNCc1ccc(-c2ccc3ncnc(Nc4ccc(OCc5cccc(F)c5)c(Cl)c4)c3c2)o1 [Lapatinib] (partner 2 µM)
Outline: as §1

BAY61-3606 + Foretinib = compound: COC1=C(C=C(C=C1)C2=CC3=NC=CN3C(=N2)NC4=C(C=CC=N4)C(=O)N)OC [BAY61-3606] + COc1cc2c(Oc3ccc(NC(=O)C4(C(=O)Nc5ccc(F)cc5)CC4)cc3F)ccnc2cc1OCCCN1CCOCC1 [Foretinib] (partner 0.25 µM)
Outline: as §1

Doxorubicin + AZD7762 = compound: COc1cccc2c1C(=O)c1c(O)c3c(c(O)c1C2=O)C[C@@](O)(C(=O)CO)C[C@@H]3O[C@H]1C[C@H](N)[C@H](O)[C@H](C)O1 [Doxorubicin] + NC(=O)Nc1cc(-c2cccc(F)c2)sc1C(=O)N[C@H]1CCCNC1 [AZD7762] (partner 0.2 µM)
Outline: as §1

| Cell Line | relative viability (Doxorubicin + OSI-027; first compound 0.001 µM) | relative viability (Doxorubicin + OSI-027; first compound 0.003162 µM) | relative viability (Doxorubicin + OSI-027; first compound 0.01 µM) | relative viability (Doxorubicin + OSI-027; first compound 0.03162 µM) | relative viability (Doxorubicin + OSI-027; first compound 0.1 µM) | relative viability (BAY61-3606 + Lapatinib; first compound 0.02 µM) | relative viability (BAY61-3606 + Lapatinib; first compound 0.06325 µM) | relative viability (BAY61-3606 + Lapatinib; first compound 0.2 µM) | relative viability (BAY61-3606 + Lapatinib; first compound 0.6325 µM) | relative viability (BAY61-3606 + Lapatinib; first compound 2 µM) | relative viability (BAY61-3606 + Foretinib; first compound 0.02 µM) | relative viability (BAY61-3606 + Foretinib; first compound 0.06325 µM) | relative viability (BAY61-3606 + Foretinib; first compound 0.2 µM) | relative viability (BAY61-3606 + Foretinib; first compound 0.6325 µM) | relative viability (BAY61-3606 + Foretinib; first compound 2 µM) | relative viability (Doxorubicin + AZD7762; first compound 0.001 µM) | relative viability (Doxorubicin + AZD7762; first compound 0.003162 µM) | relative viability (Doxorubicin + AZD7762; first compound 0.01 µM) | relative viability (Doxorubicin + AZD7762; first compound 0.03162 µM) | relative viability (Doxorubicin + AZD7762; first compound 0.1 µM) |
| --- | --- | --- | --- | --- | --- | --- | --- | --- | --- | --- | --- | --- | --- | --- | --- | --- | --- | --- | --- | --- |
| NCI-H1915 | 0.532 | 0.674 | 0.667 | 0.628 | 0.659 | 1.02 | 1.02 | 0.925 | 0.878 | 0.919 | 1.06 | 1.09 | 1.07 | 1.13 | 0.613 | 0.694 | 0.761 | 0.644 | 0.688 | 0.714 |
| NCI-H1944 | 0.317 | 0.46 | 0.473 | 0.358 | 0.366 | 0.851 | 0.88 | 0.796 | 0.776 | 0.587 | 0.912 | 0.815 | 0.858 | 0.886 | 0.396 | 0.512 | 0.573 | 0.451 | 0.483 | 0.46 |
| NCI-H1975 | 0.637 | 0.715 | 0.685 | 0.497 | 0.256 | 0.996 | 0.881 | 0.963 | 0.925 | 0.595 | 1.06 | 0.931 | 0.874 | 0.974 | 0.65 | 0.738 | 0.623 | 0.764 | 0.599 | 0.391 |
| NCI-H1993 | 0.591 | 0.58 | 0.542 | 0.515 | 0.498 | 0.733 | 0.846 | 0.808 | 0.776 | 0.746 | 0.818 | 0.772 | 0.712 | 0.794 | 0.66 | 0.856 | 0.882 | 0.708 | 0.73 | 0.579 |
| NCI-H2085 | 0.786 | 0.784 | 0.667 | 0.679 | 0.589 | 0.865 | 0.784 | 0.777 | 0.977 | 0.71 | 1.07 | 0.947 | 0.995 | 0.871 | 0.917 | 0.972 | 0.974 | 0.856 | 1.1 | 0.896 |
| NCI-H2087 |  | 0.702 | 0.414 | 0.403 | 0.269 | 0.747 | 1.08 | 0.994 | 1.11 | 1 | 1.21 | 1.08 | 1.05 | 1.06 | 0.924 | 1.3 | 1.32 | 1.32 | 1.34 | 1.17 |
| NCI-H2126 | 0.538 | 0.701 | 0.642 | 0.662 | 0.651 | 0.83 | 0.724 | 0.745 | 0.794 | 0.745 | 1.4 | 1.21 | 1.06 | 1.13 | 0.959 | 0.913 | 0.921 | 0.966 | 0.985 | 1 |
| NCI-H2170 | 0.25 | 0.809 | 0.745 | 0.614 | 0.795 | 0.236 | 0.272 | 0.257 | 0.262 | 0.279 | 0.993 | 1.03 | 1.02 | 0.523 | 0.782 | 0.825 | 0.95 | 0.792 | 0.626 | 0.961 |
| NCI-H2347 | 0.469 | 0.405 | 0.433 | 0.523 | 0.35 | 1.05 | 0.951 | 0.924 | 0.945 | 0.941 | 1.03 | 0.601 | 1.46 | 0.856 | 1.17 | 0.618 | 0.895 | 0.668 | 0.686 | 0.58 |
| NCI-H2405 | 0.607 | 0.645 | 0.654 | 0.629 | 0.509 | 1.26 | 0.886 | 1.05 | 1.14 | 1.07 | 1.06 | 1.05 | 1.11 | 1.11 | 0.867 | 0.785 | 0.802 | 0.801 | 0.682 | 0.381 |
| NCI-H3122 | 0.489 | 0.89 | 0.819 | 0.382 | 0.314 | 1.03 | 0.934 | 0.974 | 1.07 | 0.957 | 0.952 | 1.07 | 0.94 | 0.962 | 0.969 | 0.964 | 1.03 | 0.894 | 0.989 | 0.952 |
| PC-3 [JPC-3] | 0.797 | 0.729 | 0.747 | 0.733 | 0.801 | 0.468 | 0.482 | 0.478 | 0.436 | 0.471 |  | 1.03 | 1.08 | 1.06 | 0.949 | 0.901 | 0.927 | 0.96 | 0.762 | 0.585 |
| PC-14 | 0.683 | 1.14 | 0.865 | 0.161 | 0.0612 | 0.367 | 0.278 | 0.357 | 0.339 | 0.377 | 0.992 | 0.957 | 0.911 | 0.963 | 0.931 | 0.387 | 0.366 | 0.519 | 0.259 | 0.15 |
| RERF-LC-KJ | 0.643 | 0.556 | 0.544 | 0.302 | 0.261 | 0.935 | 0.741 | 0.859 | 0.814 | 0.709 | 0.899 | 0.922 | 0.828 | 0.886 | 0.779 | 1.04 | 1.1 | 0.872 | 0.866 | 0.896 |
